Test results as given in patent US20230019280A1, “SUBSTITUTED ISOINDOLONYL 2,2'-BIP[…], ANALOGUES THEREOF, AND METHODS USING SAME” (priority 2019, published 2023).

system: HBsAg; test: HBsAg assay (inhibition of HBsAg in HepG2.2.15 cells); assay type: cell-based, hepatitis B virus; conditions: Hepatitis B virus, HepG2.2.15, 144 h, read-out: sAg EC50, HepG2.2.15 cells; supernatant HBsAg by CLIA at day 6 after exposure of compounds
Description: Inhibition of HBsAg was determined in HepG2.2.15 cells. Cells were maintained in culture medium containing 10% fetal calf serum, […], Glutamine, penicillin/streptomycin. Cells were seeded in 96-well collagen-coated plate at a density of 30,000 cells/well. Serially diluted compounds were added to cells next day at the final DMSO concentration of 0.5%. Cells were incubated with compounds for 2-3 days, after which medium was removed. Fresh medium containing compounds was added to cells for additional 3-4 days. At day 6 after exposure of compounds, supernatant was collected, the HBsAg immunoassay (microplate-based chemiluminescence immunoassay kits, CLIA, Autobio Diagnosics Co., Zhengzhou, China, Catalog #CL0310-2) was used to determine the level of HBsAg according to manufactory instruction. Dose-response curves were generated and the EC50 value (effective concentrations that achieved 50% inhibitory effect) were determined using XLfit software. In addition, cells were seeded at a density of 5,000 cells/well for determination of cell viability in the presence and absence of compounds by using CellTiter-Glo reagent (Promega).

Q: For `COc1cc2c(cc1OC)C(c1ccccc1)N(c1ccnc(-c3ncccn3)n1)C2=O` (stereo not shown) [Example 42, 2-([2,2′-Bipyrimidin]-4-yl)-5,6-dimethoxy-3-phenylisoindolin-1-one], which EC50 is on record?
A: Its EC50 is 0.001 µM.

Q: For `COc1cc2c(cc1F)C1(CC1)N(c1ccnc(-c3ncccn3)n1)C2=O` [Example 47, 2′-([2,2′-Bipyrimidin]-4-yl)-6′-fluoro-5′-methoxyspiro[cyclopropane-1,1′-isoindolin]-3′-one], which EC50 is on record?
A: The EC50 was 0.12 µM.

Q: Which EC50 does the source give for `COc1cc2c(cc1OC)C(CC(C)C)N(c1ccnc(-c3ncccn3)n1)C2=O` (stereo not shown) [Example 39, 2-([2,2′-Bipyrimidin]-4-yl)-3-isobutyl-5,6-dimethoxyisoindolin-1-one] here?
A: Its EC50 is 0.002 µM.

same assay, conditions: read-out: sAg EC50; HepG2.2.15 cells; supernatant HBsAg by CLIA at day 6 after exposure of compounds

Q: For `COc1cc2c(cc1OC)C(c1ccccc1)N(c1nc(-c3ncccn3)ncc1F)C2=O` (single isomer, unassigned) [Example 71, 2-(5-Fluoro-[2,2′-bipyrimidin]-4-yl)-5,6-dimethoxy-3-phenylisoindolin-1-one], which EC50 is on record?
A: The EC50 was 1 µM.

Q: For `COCCC1c2cc(F)c(OC)cc2C(=O)N1c1ccnc(-c2ncccn2)n1` (single isomer, unassigned) [Example 54, 2-([2,2′-Bipyrimidin]-4-yl)-5-fluoro-6-methoxy-3-(2-methoxyethyl)isoindolin-1-one], which EC50 is on record?
A: Its EC50 is 0.43 µM.

Q: `COc1cc2c(cc1OC)C(CCC(F)(F)F)N(c1ccnc(-c3ncccn3)n1)C2=O` (single isomer, unassigned) [Example 16, 2-([2,2′-Bipyrimidin]-4-yl)-5,6-dimethoxy-3-(3,3,3-trifluoropropyl)isoindolin-1-one] was tested. Which EC50 did it give?
A: The EC50 was 30 µM.

Q: Which EC50 does the source give for `CCC1c2cc(Cl)cc(F)c2C(=O)N1c1ccnc(-c2ncccn2)n1` (single isomer, unassigned) [Example 21, 2-([2,2′-Bipyrimidin]-4-yl)-5-chloro-3-ethyl-7-fluoroisoindolin-1-one] here?
A: Its EC50 is 25 µM.

Q: How did the EC50 turn out when `CCC1c2cc(OC)c(OC)cc2C(=O)N1c1ccnc(-c2ncc(F)cn2)n1` (single isomer, unassigned) [Example 73, 3-Ethyl-2-(5′-fluoro-[2,2′-bipyrimidin]-4-yl)-5,6-dimethoxyisoindolin-1-one] was run?
A: The EC50 was 1 µM.

Q: How did the EC50 turn out when `COc1ccc(C2c3cc(OC)c(OC)cc3C(=O)N2c2ccnc(-c3ncccn3)n2)cc1` (single isomer, unassigned) [Example 10, 2-([2,2′-Bipyrimidin]-4-yl)-5,6-dimethoxy-3-(4-methoxyphenyl)isoindolin-1-one] was run?
A: Its EC50 is 0.013 µM.

Q: How did the EC50 turn out when `COc1cc2c(cc1OC)C(c1ccc(C)nc1)N(c1ccnc(-c3ncccn3)n1)C2=O` (single isomer, unassigned) [Example 19, 2-([2,2′-Bipyrimidin]-4-yl)-5,6-dimethoxy-3-(6-methylpyridin-3-yl)isoindolin-1-one] was run?
A: Its EC50 is 0.39 µM.
